Experiments:
B-cells (CD19+ or CD20+) = assay: B-cell reduction in immune-proficient mice, blood analyzed by flow cytometry; type: in vivo
Description: (§1) In this study, vehicle, LP-284 (4 mg/kg), and cyclophosphamide (25 mg/kg, a clinically relevant dose) were administered intravenously on days 1, 8, and 15, with three mice per treatment group. Blood samples were collected on Day 16 and analyzed by flow cytometry to quantify the B-cell populations.

[1] = Tolerability (body weight, gross necropsy) in immune-proficient mice; details: 4 mg/kg intravenously days 1, 8, 15
Description: as §1

[2] = test system: OCLLY1-derived tumor xenografts; assay: LP-284 alone and with rituximab in OCLLY1 DLBCL/HGBL-MYC/BCL2 tumor xenografts in mice; type: in vivo; details: for tumor growth inhibition (TGI): day 24, NOD.SCID mice
Description: HRD genomic scars from 107 B-NHL patients in the Pan-Cancer Analysis of Whole Genomes (PCAWG) study were tested. At least 10% of B-NHL patients were likely HRD+, with approximately 90% of these cases being diffuse large B-cell lymphoma (DLBCL). […] The calculated bliss synergy score between LP-284 and Rituximab on day 24 is 10, indicating synergy.
LP-284's efficacy in DLBCL/HGBL-MYC/BCL2 xenograft models was evaluated. LP-284, vehicle (saline), and Rituximab were administered intravenously in OCLLY1-derived tumor xenografts in mice. All vehicle-treated mice were sacrificed by day 24 due to excessive tumor size.
LP-284 was tested for anti-tumor efficacy as a monotherapy and in combination with rituximab in OCI-LY 1 DLBCL/HGBL-MYC/BCL2 cell line-derived tumor xenografts in mice. Methods: OCLLY1 cells were implanted subcutaneously in NOD.SCID mice. The following treatments were initiated when the tumors reached a volume of >100 mm3: vehicle (saline, administered intravenously on days 1, 8, and 15 in a 28-day cycle), 2 mg/kg or 4 mg/kg LP-284 (administered intravenously on days 1, 8, and 15 in a 28-day cycle), 10 mg/kg rituximab (administered intravenously on days 1 and 15 in a 28-day cycle), 2 mg/kg LP-284 and 10 mg/kg rituximab in combination. Four mice were used in each treatment group. Tumor Growth Inhibition (TGI) was calculated as % TGI=(1−((Tt/T0)/(Ct/C0)))/(1−(C0/Ct))*100 where Tt=mean tumor volume of treated at time t, TO=mean tumor volume of treated at time 0, Ct=mean tumor volume of control at time t, CO=mean tumor volume of control at time 0.

O=P1(N(CCCl)CCCl)NCCCO1 (centres unmarked) [cyclophosphamide, reference compound]
reduction of B-cells (CD19+ or CD20+) (B-cells (CD19+ or CD20+); cyclophosphamide 25 mg/kg intravenously days 1, 8, 15, blood collected Day 16, immune-proficient mice): comparable to the reduction achieved by cyclophosphamide

CC1=C(CN(O)C(N)=O)C2=C(C)C3(CC3)[C@](C)(O)C(=O)C2=C1 [LP-284, (+)-hydroxyureamethyl acylfulvene]
reduction of B-cells (CD19+ or CD20+) (B-cells (CD19+ or CD20+); iv, 4 mg/kg, 384 h): approximately 30% | body weight [1]: normal body weight | gross necropsy findings [1]: no abnormal findings | tolerability [1]: well-tolerated | tumor growth inhibition (TGI) ([2]; 2 mg/kg LP-284 alone intravenously days 1, 8, 15): 57% | tumor growth inhibition (TGI) ([2]; 4 mg/kg LP-284 intravenously days 1, 8, 15): 99% | tumor volume ([2]; by day 24, versus vehicle (saline), intravenous): significantly reduced tumor volume

From patent US20260083691A1, “TREATING CANCERS WITH COMBINATIONS OF ANTI-CD20 ANTIBODY AND ACYLFULVENES” (Lantern Pharma Inc., priority 2023, published 2026)
